Reference: US8163939B2, “Ascorbic acid derivative or salt thereof, production method thereof, and cosmetic” (Seikwa Kasei Company, Limited, priority 2007, dated 2012)
Each block holds one compound with its values, some of them ahead of it.

How the values were obtained:
[1] = Moisturizing test: moisturizing effect by water retention force; assay type: physicochemical; conditions: for moisturizing effect (in words): conclusion from Table 43, compared with ascorbic acid
Experimental: A sample shown later was dried, and the dried sample was spread in an amount of about 0.4 g (this weight is represented by W0) on the bottom of a weighing bottle (diameter: 3.6 cm, height excluding lid: 1.8 cm) so as to give uniform thickness. The sample contained in the weighing bottle was allowed to stand still in a constant humidity and constant temperature vessel (ENVIROS KCL-1000, TOKYO RIKAKIKAI CO, LTD) under environments of 25° C. and 65% RH. The weight was measured periodically, waiting until sufficient moisture absorption to attain equilibrium of weight increase (about 48 hours). Thereafter, the sample was transferred to under environments of 25° C. and 20% RH (in sealed vessel containing a saturated CH3COOK aqueous solution filled in the bottom part). From the weight after 24 hours (this weight is represented by W1), the amount of retained water per 1 g of the dried sample was calculated according to the following formula. (W1−W0)/W0
From the water amount thus calculated, the moisturizing effect was judged based on the following judging criterion, and the results are shown in Table 43.
Three compounds: 2,3-di-O-glyceryl ascorbic acid, 2,3-di-O-phenylglyceryl ascorbic acid, and glycerin, and
Six compounds: ascorbic acid, ascorbic acid glucoside, 2-O-glyceryl ascorbic acid, 3-O-glyceryl ascorbic acid, 3-O-butylglyceryl ascorbic acid and 3-O-octylglyceryl ascorbic acid, which were adjusted to pH7 with a dilute sodium hydroxide aqueous solution and concentrated.
◯: 25 mg or more and less than 40 mg
Δ: 10 mg or more and less than 25 mg

[2] = test system: B16 melanoma 4A5 cell; experiment: Whitening test: theophylline-induced melanine production in B16 melanoma 4A5 cells; assay type: cell-based, mouse; conditions: sample at a concentration of 100 μM or less; theophylline-induced melanine production; 3 days culture; N=4;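 note: grades: ± under 20% + 20-40% ++ 40-70% +++ 70-100% suppression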
Experimental: As a test for a whitening effect, evaluation of the action of B16 melanoma 4A5 cell on theophylline-induced melanine production was carried out on an ascorbic acid derivative of the present invention, according to the following procedure. The same evaluation was carried out also on ascorbic acid, known compounds: ascorbic acid salts, and ascorbic acid derivatives, as comparison. The results are shown in Tables 38 to 40. • (1) B16 mouse melanoma 4A5 strain was sowed onto a 48-well plate at a cell density of 2.0×10^4 cells/well. • (2) Culturing was performed for 24 hours with Dulbecco's Modified Eagle's medium (manufactured by SIGMA. Hereinafter, abbreviated as D-MEM) containing 10% fetal bovine serum (manufactured by Roshe Diagnostics). Then, it was changed to 0.2 mM theophylline and a 10% fetal bovine serum-containing D-MEM which contains a sample of given concentration. • (3) After culturing for 3 days in the co-existence of a sample, the medium was removed using an aspirator. Then, after distilled water was added, cells were broken by an ultrasonic wave. • (4) Thereafter, the amount of protein was determined using BCA protein assay kit (manufactured by PIERCE), and the produced amount of melanine was measured by an alkali solubilizing method. To the cell-destructed solution was added sodium hydroxide so as to give a final concentration of 2N and the mixture was dissolved by heating (60° C., 15 minutes), then, the absorbance at 450 nm was measured using a micro plate reader. The melanine amount was calculated from a calibration curve made using synthetic melanine (SIGMA) as a standard. The melanine amount per unit protein was calculated by dividing the melanine amount by the protein amount. • (5) The melanine production suppressing rate was calculated according to the following formula. Melanine production suppressing rate (%)=[1−(A−B)/(C−B)]×100 [wherein, A represents the melanine amount per unit protein (g/g) in adding a sample, B represents the melanine amount per unit protein (g/g) in the normal group, and C represents the melanine amount per unit protein (g/g) in the control group.]
In the following Tables, the melanine production suppressing rate in measuring a sample at a concentration of 100 μM or less is expressed as described below. The measurement was carried out at N=4.

[3] = Stability Test 1: 2% aqueous solution, pH7, room temperature, 4 weeks (residual rate, odor, coloration); assay type: physicochemical
Experimental: (§1) Aqueous solutions (2%) of various test samples were adjusted to pH7 with a dilute sodium hydroxide aqueous solution, and charged into 50 mL screw tubes, and the tubes were sealed and stored at room temperature for 4 weeks. Thereafter, HPLC measurement were performed (using liquid chromatography manufactured by Tosoh Corp.) and the residual rate was obtained based on the peak area. The residual rate, odor(odor change) and degree of coloration were evaluated based on the following methods and standards, and the results are shown in Table 41.
◯: 80% or more and less than 90%
Δ: 60% or more and less than 80%
X: 20% or more and less than 60%
It was evaluated according to the following criterion by 10 panelists.
Based on the evaluation results, classification was conducted as shown below.
◯: total point of 10 panelists is 25 or more
Δ: total point of 10 panelists is 16 to 24
X: total point of 10 panelists is 15 or less
3: almost no change as compared with that immediately after preparation
2: coloration is observed as compared with that immediately after preparation
1: intense coloration is observed as compared with that immediately after preparation

[4] = Stability Test 2: 2% aqueous solution, pH7, 50° C., 4 weeks (residual rate, odor, coloration); assay type: physicochemical
Experimental: as §1
The same test as in Test Example 2 was carried out excepting that the sample was stored at 50° C. for 4 weeks instead of storing at room temperature for 4 weeks.

[5] = test system: Normal human dermal fibroblasts; experiment: Collagen production of human fibroblast (Sircol collagen assay, 100 μM, 48 hours); assay type: cell-based; conditions: cultured 48 hours; for activity at 100 µM: Homo sapiens, Fibroblast, N=4, read-out: Collagen production promoting effect (collagen production amount, % of control group)
Experimental: (§2) Normal human dermal fibroblasts were regulated with a 10% (v/v) fetal bovine serum (manufactured by Roshe Diagnostics)-containing D-MEM so as to give a cell density of 2.5×10^4 cells/well, then, pre-incubation for 24 hours was performed on a 96-well plate. After the medium was removed, a sample regulated with a 5% (v/v) fetal bovine serum-containing D-MEM to a concentration of 100 μM was added to each well, then, cultured for 48 hours under 37° C. and 5% CO2. After completion of culturing, the amount of free collagen was measured using Sircol collagen assay kit (manufactured by Biocolor). The measurement was carried out at N=4.
The collagen production amount in measuring a sample at a concentration of 100 μM was compared with the control group, and the results thereof (% value when the control group is 100%) are shown in Tables 44 and 45 based on the following standard.

[6] = test system: Normal human dermal fibroblasts; experiment: Collagen production of human fibroblast 2 (100 μM or 500 μM; 2, 4 and 7 days); assay type: cell-based; conditions: for Collagen production amount in comparison with the control group (% value when the control group is 100%): Table 46, 100 μM or 500 μM (not stated which), average ± standard error, N=4; for collagen production promoting effect over time (in words): 100 μM or 500 μM, culturing 2, 4 and 7 days
Experimental: as §2
Free collagen was measured under the same conditions as in Test Example 5 excepting that the concentration of each sample was 100 μM or 500 μM and culturing was carried out for 2 days, 4 days and 7 days. The measurement was carried out at N=4, and the average and standard error, in four test examples, of values of the collagen production amount in comparison with the control group (% value when the control group is 100%) are shown in Tables 46 and 47.

[7] = storage period 2 weeks, 10 panelists
[8] = storage period 4 weeks, 10 panelists

Compound: O=C1O[C@H]([C@@H](O)CO)C(OCC(O)CO)=C1OCC(O)CO (stereo partly drawn) [2,3-di-O-glycerylascorbic acid]
Judgement of moisturizing effect (water amount) [1]: ⊚ (⊚: 40 mg or more)

Compound: 3-O-octylglycerylascorbic acid
Judgement of moisturizing effect (water amount) [1]: Δ (Δ: 10 mg or more and less than 25 mg)

Compound: 2,3-di-O-phenylglycerylascorbic acid
Judgement of moisturizing effect (water amount) [1]: Δ (Δ: 10 mg or more and less than 25 mg)

Compound: 3-O-butylglycerylascorbic acid
Judgement of moisturizing effect (water amount) [1]: ◯ (◯: 25 mg or more and less than 40 mg)

Compound: O=C1O[C@H]([C@@H](O)CO)C(OCC(O)CO)=C1O (stereo partly drawn) [3-O-glycerylascorbic acid]
Judgement of moisturizing effect (water amount) [1]: ◯ (◯: 25 mg or more and less than 40 mg)

Compound: O=C1O[C@H]([C@@H](O)CO)C(O)=C1OCC(O)CO (stereo partly drawn) [2-O-glycerylascorbic acid]
Judgement of moisturizing effect (water amount) [1]: ⊚ (⊚: 40 mg or more)

Compound: CCOC1=C(O)C(=O)O[C@@H]1[C@@H](O)CO [3-O-ethylascorbic acid, reference compound]
Whitening effect (melanine production suppressing rate) [2]: + (20 to 40%:+)
Residual rate ([3]; storage period 0): ⊚ (⊚: 90% or more)
Coloration ([3]; storage period 0, 10 panelists): ◯ (◯: total point of 10 panelists is 25 or more)
Odor ([3]; storage period 0, 10 panelists): ◯ (◯: total point of 10 panelists is 25 or more)
Residual rate ([3]; storage period 2 weeks): ◯ (◯: 80% or more and less than 90%)
Coloration [3, 7]: ◯ (◯: total point of 10 panelists is 25 or more)
Odor [3, 7]: ◯ (◯: total point of 10 panelists is 25 or more)
Residual rate ([3]; storage period 4 weeks): ◯ (◯: 80% or more and less than 90%)
Coloration [3, 8]: Δ (Δ: total point of 10 panelists is 16 to 24)
Odor [3, 8]: ◯ (◯: total point of 10 panelists is 25 or more)
Residual rate ([4]; storage period 0): ◯ (◯: 80% or more and less than 90%)
Coloration ([4]; storage period 0, 10 panelists): ◯ (◯: total point of 10 panelists is 25 or more)
Odor ([4]; storage period 0, 10 panelists): ◯ (◯: total point of 10 panelists is 25 or more)
Residual rate ([4]; storage period 2 weeks): X (X: 20% or more and less than 60%)
Coloration [4, 7]: Δ (Δ: total point of 10 panelists is 16 to 24)
Odor [4, 7]: Δ (Δ: total point of 10 panelists is 16 to 24)
Residual rate ([4]; storage period 4 weeks): X (X: 20% or more and less than 60%)
Coloration [4, 8]: Δ (Δ: total point of 10 panelists is 16 to 24)
Odor [4, 8]: Δ (Δ: total point of 10 panelists is 16 to 24)
activity at 100 µM [5]: 100 to 200%
collagen production promoting effect over time (in words) [6]: lowers over time
Collagen production amount in comparison with the control group (% value when the control group is 100%) ([6]; culturing period 2 days): 140 ± 4%
Collagen production amount in comparison with the control group (% value when the control group is 100%) ([6]; culturing period 4 days): 138 ± 2%
Collagen production amount in comparison with the control group (% value when the control group is 100%) ([6]; culturing period 7 days): 106 ± 14%

Compound: O=C1O[C@H]([C@@H](O)CO)C(OCC(O)CO)=C1O (stereo partly drawn) [Example 1, 3-O-glyceryl ascorbic acid]
moisturizing effect (in words) [1]: more excellent moisturizing effect than ascorbic acid

The next lines start with results.

Residual rate ([3]; storage period 0): ⊚ (⊚: 90% or more)
Residual rate ([3]; storage period 2 weeks): ⊚ (⊚: 90% or more)
Residual rate ([3]; storage period 4 weeks): ⊚ (⊚: 90% or more)
Residual rate ([4]; storage period 0): ⊚ (⊚: 90% or more)
Residual rate ([4]; storage period 2 weeks): ⊚ (⊚: 90% or more)
Residual rate ([4]; storage period 4 weeks): ⊚ (⊚: 90% or more)
Compound: O=C1O[C@H]([C@@H](O)CO)C(O)=C1OCC(O)CO (stereo partly drawn) [Example 3, 2-O-glyceryl ascorbic acid]
Whitening effect (melanine production suppressing rate) [2]: + (20 to 40%:+)
Coloration ([3]; storage period 0, 10 panelists): ◯ (◯: total point of 10 panelists is 25 or more)
Odor ([3]; storage period 0, 10 panelists): ◯ (◯: total point of 10 panelists is 25 or more)
Coloration [3, 7]: ◯ (◯: total point of 10 panelists is 25 or more)
Odor [3, 7]: ◯ (◯: total point of 10 panelists is 25 or more)
Coloration [3, 8]: ◯ (◯: total point of 10 panelists is 25 or more)
Odor [3, 8]: ◯ (◯: total point of 10 panelists is 25 or more)
Coloration ([4]; storage period 0, 10 panelists): ◯ (◯: total point of 10 panelists is 25 or more)
Odor ([4]; storage period 0, 10 panelists): ◯ (◯: total point of 10 panelists is 25 or more)
Coloration [4, 7]: ◯ (◯: total point of 10 panelists is 25 or more)
Odor [4, 7]: ◯ (◯: total point of 10 panelists is 25 or more)
Coloration [4, 8]: ◯ (◯: total point of 10 panelists is 25 or more)
Odor [4, 8]: ◯ (◯: total point of 10 panelists is 25 or more)
moisturizing effect (in words) [1]: excellent moisturizing effect by far than ascorbic acid
activity at 100 µM [5]: 100 to 200%
Collagen production amount in comparison with the control group (% value when the control group is 100%) ([6]; culturing period 2 days): 226 ± 10%
Collagen production amount in comparison with the control group (% value when the control group is 100%) ([6]; culturing period 4 days): 193 ± 6%
Collagen production amount in comparison with the control group (% value when the control group is 100%) ([6]; culturing period 7 days): 258 ± 22%

Judgement of moisturizing effect (water amount) [1]: ⊚ (⊚: 40 mg or more)
Compound: O=C1O[C@H]([C@@H](O)CO)C(O)=C1O[C@H]1O[C@H](CO)[C@@H](O)[C@H](O)[C@H]1O [ascorbic acid glucoside, reference compound]
Whitening effect (melanine production suppressing rate) [2]: + (20 to 40%:+)
Collagen production promoting effect (collagen production amount, % of control group) ([5]; N=4): + (100 to 200%:+)
collagen production promoting effect over time (in words) [6]: lowers over time
Collagen production amount in comparison with the control group (% value when the control group is 100%) ([6]; culturing period 2 days): 193 ± 4%
Collagen production amount in comparison with the control group (% value when the control group is 100%) ([6]; culturing period 4 days): 239 ± 2%
Collagen production amount in comparison with the control group (% value when the control group is 100%) ([6]; culturing period 7 days): 179 ± 14%

Judgement of moisturizing effect (water amount) [1]: ⊚ (⊚: 40 mg or more)
Compound: OCC(O)CO [glycerin, reference compound]
